Laboratory results taken from ChEMBL document CHEMBL1134827, “Design and synthesis of novel 2,3-dihydro-1H-isoindoles with high affinity and selectivity for the dopamine D3 receptor” (Bioorg Med Chem Lett, 2001).

Legend:
D(2) dopamine receptor = D(2) dopamine receptor (Homo sapiens, UniProt P14416); assay: Displacement of [125I]iodosulpiride from human Dopamine receptor D2 expressed in CHO cells; assay type: cell-based
D(3) dopamine receptor = D(3) dopamine receptor (Homo sapiens, UniProt P35462); assay: Displacement of [125I]iodosulpiride from human Dopamine receptor D3 expressed in CHO cells; assay type: cell-based
[1] = target: T1, 5-hydroxytryptamine receptor 1A (Homo sapiens, UniProt P08908); assay: Evaluated for the binding affinity to 5-hydroxytryptamine 1A receptor
T1 sequence (P08908 whole entry): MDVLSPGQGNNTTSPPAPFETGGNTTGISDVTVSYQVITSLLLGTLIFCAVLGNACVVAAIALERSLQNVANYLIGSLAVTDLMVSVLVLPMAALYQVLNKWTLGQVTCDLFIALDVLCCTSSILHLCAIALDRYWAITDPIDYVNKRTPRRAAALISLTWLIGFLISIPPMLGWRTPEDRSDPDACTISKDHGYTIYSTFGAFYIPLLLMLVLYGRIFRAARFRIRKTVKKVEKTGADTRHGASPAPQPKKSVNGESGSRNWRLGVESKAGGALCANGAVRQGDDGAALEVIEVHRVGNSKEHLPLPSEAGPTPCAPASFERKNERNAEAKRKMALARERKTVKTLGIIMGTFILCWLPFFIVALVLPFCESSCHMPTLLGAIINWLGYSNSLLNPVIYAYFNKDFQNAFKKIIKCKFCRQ

[2] = target: 5-hydroxytryptamine receptor 1B (Homo sapiens, UniProt P28222); assay: Evaluated for the binding affinity to 5-hydroxytryptamine 1B receptor
[3] = target: 5-hydroxytryptamine receptor 2A (Homo sapiens, UniProt P28223); assay: Evaluated for the binding affinity towards 5-hydroxytryptamine 2A receptor
[4] = target: 5-hydroxytryptamine receptor 2B (Homo sapiens, UniProt P41595); assay: Evaluated for the binding affinity to 5-HT 2B receptor
[5] = target: 5-hydroxytryptamine receptor 7 (Homo sapiens, UniProt P34969); assay: Evaluated for the binding affinity to 5-hydroxytryptamine 7 receptor
[6] = target: T2, 5-hydroxytryptamine receptor 2C (Homo sapiens, UniProt P28335); assay: Evaluated for the binding affinity to 5-hydroxytryptamine 2C receptor
T2 sequence (P28335 whole entry): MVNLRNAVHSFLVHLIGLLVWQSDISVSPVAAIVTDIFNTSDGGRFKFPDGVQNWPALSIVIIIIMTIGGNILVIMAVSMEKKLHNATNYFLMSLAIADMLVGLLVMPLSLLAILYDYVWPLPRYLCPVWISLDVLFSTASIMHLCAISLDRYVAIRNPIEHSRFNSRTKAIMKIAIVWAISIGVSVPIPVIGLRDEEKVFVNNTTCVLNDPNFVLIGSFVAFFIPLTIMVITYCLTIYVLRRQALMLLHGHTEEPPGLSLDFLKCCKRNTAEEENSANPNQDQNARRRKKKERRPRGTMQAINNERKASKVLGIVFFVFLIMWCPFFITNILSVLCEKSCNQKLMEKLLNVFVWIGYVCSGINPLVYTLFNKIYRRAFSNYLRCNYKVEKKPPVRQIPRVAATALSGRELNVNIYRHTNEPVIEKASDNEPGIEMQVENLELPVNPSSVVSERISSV

[7] = target: 5-hydroxytryptamine receptor 6 (Homo sapiens, UniProt P50406); assay: Evaluated for the binding affinity towards 5-hydroxytryptamine 6 receptor
[8] = Evaluated for the low clearance in rat (in vivo); assay type: ADME, organism-based; conditions: blood, read-out: CLb
[9] = Evaluated for the half life in rat (in vivo); assay type: ADME, organism-based
[10] = Evaluated for the bioavailability in rat (in vivo); assay type: ADME, organism-based
[11] = target: T3, Alpha-1B adrenergic receptor (Homo sapiens, UniProt P35368); assay: Evaluated for the binding affinity to alpha 1B receptor
T3 sequence (P35368 whole entry): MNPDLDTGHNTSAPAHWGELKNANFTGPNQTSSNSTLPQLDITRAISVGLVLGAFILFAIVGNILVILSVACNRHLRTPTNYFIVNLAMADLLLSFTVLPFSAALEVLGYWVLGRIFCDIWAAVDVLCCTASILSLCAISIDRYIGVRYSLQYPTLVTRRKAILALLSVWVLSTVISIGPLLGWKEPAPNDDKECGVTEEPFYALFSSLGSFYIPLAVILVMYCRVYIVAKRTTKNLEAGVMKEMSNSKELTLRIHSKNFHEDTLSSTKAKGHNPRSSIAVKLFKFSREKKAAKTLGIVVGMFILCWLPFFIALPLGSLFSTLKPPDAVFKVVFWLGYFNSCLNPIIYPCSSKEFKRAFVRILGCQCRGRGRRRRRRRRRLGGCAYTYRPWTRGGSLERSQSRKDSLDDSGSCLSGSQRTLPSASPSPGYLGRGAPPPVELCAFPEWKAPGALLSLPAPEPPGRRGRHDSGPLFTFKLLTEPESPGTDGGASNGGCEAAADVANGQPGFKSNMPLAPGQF

[12] = target: D(3) dopamine receptor (Rattus norvegicus) (UniProt P19020); assay: Antagonistic activity at D3 receptor using in vitro functional assay
[13] = target: 5-hydroxytryptamine receptor 1D (Homo sapiens, UniProt P28221); assay: Evaluated for the binding affinity against 5-hydroxytryptamine 1D receptor
Chain of 5-hydroxytryptamine receptor 1D (P28221 whole entry): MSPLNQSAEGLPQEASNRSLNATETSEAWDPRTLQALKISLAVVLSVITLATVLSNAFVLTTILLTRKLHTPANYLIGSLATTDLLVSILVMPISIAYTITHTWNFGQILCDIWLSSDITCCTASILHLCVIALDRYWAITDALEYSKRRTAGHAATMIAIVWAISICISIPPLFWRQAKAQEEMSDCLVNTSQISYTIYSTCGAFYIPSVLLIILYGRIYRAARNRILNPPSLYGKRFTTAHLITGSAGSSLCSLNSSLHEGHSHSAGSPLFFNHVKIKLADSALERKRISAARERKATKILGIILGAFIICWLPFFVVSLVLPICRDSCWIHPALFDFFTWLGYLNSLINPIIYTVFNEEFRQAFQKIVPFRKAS

Chain of D(3) dopamine receptor (P35462 whole entry): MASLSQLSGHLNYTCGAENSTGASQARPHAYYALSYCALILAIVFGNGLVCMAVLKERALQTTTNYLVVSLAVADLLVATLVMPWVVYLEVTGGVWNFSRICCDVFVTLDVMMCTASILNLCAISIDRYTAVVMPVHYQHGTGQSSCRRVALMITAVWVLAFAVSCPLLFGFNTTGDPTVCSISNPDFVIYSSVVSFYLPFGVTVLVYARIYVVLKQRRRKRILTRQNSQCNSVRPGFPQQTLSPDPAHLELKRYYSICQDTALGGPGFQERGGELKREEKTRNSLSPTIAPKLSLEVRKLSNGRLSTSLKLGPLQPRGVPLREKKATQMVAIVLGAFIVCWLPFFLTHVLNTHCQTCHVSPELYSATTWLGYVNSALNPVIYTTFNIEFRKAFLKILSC
Chain of D(2) dopamine receptor (P14416 whole entry): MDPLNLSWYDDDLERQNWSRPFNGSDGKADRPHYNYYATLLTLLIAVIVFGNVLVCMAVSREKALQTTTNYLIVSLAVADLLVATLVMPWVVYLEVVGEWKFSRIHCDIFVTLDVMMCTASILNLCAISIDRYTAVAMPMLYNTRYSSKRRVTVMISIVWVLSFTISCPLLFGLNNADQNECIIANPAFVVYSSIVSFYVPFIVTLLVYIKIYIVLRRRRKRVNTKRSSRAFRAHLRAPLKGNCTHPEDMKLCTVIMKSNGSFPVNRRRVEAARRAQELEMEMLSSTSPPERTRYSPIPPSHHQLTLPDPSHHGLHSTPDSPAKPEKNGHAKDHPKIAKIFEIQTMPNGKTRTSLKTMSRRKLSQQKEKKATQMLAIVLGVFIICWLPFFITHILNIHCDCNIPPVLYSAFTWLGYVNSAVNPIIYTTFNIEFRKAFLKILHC
Chain of 5-hydroxytryptamine receptor 2A (P28223 whole entry): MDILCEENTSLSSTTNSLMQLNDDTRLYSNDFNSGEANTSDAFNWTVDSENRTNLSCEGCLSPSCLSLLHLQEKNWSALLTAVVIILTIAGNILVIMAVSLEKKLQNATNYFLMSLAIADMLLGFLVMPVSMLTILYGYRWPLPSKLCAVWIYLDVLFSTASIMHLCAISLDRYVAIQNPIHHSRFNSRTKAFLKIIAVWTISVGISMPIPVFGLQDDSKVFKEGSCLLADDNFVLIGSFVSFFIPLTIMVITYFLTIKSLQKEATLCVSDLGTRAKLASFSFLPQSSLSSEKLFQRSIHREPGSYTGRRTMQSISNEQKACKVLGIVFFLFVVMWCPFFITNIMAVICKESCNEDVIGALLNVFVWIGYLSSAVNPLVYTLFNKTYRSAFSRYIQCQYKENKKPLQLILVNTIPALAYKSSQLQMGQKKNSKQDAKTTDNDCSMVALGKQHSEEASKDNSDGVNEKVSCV
Chain of D(3) dopamine receptor (Rattus norvegicus) (P19020 whole entry): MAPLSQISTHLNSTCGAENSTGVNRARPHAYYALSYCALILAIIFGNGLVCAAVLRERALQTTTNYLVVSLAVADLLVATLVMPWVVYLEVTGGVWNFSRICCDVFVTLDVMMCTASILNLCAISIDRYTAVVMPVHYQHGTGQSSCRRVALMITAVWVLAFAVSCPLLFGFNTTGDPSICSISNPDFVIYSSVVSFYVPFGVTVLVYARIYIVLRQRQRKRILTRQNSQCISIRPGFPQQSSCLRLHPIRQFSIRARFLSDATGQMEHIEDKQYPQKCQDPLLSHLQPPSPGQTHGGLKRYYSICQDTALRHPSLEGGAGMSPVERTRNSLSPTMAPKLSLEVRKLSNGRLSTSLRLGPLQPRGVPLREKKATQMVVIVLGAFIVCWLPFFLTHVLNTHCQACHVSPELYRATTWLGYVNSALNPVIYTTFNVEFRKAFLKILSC
Chain of 5-hydroxytryptamine receptor 6 (P50406 whole entry): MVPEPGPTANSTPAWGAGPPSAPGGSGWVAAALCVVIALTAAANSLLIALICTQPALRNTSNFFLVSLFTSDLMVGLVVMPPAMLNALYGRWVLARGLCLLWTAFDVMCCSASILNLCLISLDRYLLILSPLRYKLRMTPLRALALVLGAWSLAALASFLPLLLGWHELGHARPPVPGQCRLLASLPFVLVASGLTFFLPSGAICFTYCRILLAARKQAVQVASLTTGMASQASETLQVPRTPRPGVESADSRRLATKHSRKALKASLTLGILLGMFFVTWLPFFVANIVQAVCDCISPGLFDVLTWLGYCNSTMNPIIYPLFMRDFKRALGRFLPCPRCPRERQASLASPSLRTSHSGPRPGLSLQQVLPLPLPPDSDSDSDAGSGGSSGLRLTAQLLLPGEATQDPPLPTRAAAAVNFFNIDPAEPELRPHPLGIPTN
Chain of 5-hydroxytryptamine receptor 1B (P28222 whole entry): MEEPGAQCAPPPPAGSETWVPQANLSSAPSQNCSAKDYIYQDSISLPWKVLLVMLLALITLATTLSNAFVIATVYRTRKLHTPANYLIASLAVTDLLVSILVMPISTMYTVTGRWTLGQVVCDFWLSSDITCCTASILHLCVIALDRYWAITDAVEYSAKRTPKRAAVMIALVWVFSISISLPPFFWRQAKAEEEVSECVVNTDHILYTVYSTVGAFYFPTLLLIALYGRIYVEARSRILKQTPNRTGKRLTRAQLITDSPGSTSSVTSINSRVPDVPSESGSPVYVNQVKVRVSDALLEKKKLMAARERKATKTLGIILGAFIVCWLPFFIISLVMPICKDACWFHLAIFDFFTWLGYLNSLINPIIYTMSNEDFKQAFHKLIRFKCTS
Chain of 5-hydroxytryptamine receptor 2B (P41595 whole entry): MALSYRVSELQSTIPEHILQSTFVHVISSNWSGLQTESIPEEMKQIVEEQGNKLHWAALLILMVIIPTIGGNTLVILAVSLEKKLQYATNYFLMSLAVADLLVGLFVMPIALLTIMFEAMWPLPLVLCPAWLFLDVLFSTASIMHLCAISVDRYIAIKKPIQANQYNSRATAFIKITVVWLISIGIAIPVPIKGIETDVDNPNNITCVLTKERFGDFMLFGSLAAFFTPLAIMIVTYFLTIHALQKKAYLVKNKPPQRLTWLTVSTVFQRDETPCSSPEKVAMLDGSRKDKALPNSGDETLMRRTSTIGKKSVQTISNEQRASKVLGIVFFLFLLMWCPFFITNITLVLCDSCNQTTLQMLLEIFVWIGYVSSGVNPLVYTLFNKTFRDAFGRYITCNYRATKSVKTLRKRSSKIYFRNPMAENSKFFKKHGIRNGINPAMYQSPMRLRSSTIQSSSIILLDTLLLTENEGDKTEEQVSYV
Chain of 5-hydroxytryptamine receptor 7 (P34969 whole entry): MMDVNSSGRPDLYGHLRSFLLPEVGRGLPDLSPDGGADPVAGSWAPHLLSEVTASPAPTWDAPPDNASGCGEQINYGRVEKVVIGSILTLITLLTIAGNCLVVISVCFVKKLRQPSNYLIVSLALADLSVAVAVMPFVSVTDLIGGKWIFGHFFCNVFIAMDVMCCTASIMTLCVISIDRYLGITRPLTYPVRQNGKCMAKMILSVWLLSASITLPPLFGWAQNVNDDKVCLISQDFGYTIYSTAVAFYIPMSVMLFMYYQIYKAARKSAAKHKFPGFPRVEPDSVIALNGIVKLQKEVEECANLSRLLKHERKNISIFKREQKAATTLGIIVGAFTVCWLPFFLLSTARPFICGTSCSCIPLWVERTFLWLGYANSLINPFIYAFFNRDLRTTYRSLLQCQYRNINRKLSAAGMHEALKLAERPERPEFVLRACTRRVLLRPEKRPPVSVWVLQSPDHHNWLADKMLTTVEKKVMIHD

| Compound | Ki (D(2) dopamine receptor) [nM] | Ki (D(3) dopamine receptor) [nM] | also measured |
| --- | --- | --- | --- |
| O=C(/C=C/c1ccc(F)cc1)N[C@H]1CC[C@H](CCN2Cc3ccc(C(F)(F)F)cc3C2)CC1 | 398 | 10 | – |
| N#Cc1ccc2c(c1)CN(CC[C@H]1CC[C@H](NC(=O)/C=C/c3ccc(F)cc3)CC1)C2 | 631 | 12.6 | – |
| CS(=O)(=O)Oc1ccc2c(c1)CN(CC[C@H]1CC[C@H](NC(=O)/C=C/c3ccc(F)cc3)CC1)C2 | 501 | 5.01 | Ki [1]: 3160 nM; Ki [2]: 5010 nM; Ki [3]: > 5010 nM; Ki [4]: > 1000 nM; Ki [5]: > 3980 nM; Ki [6]: > 7940 nM; Ki [7]: > 10000 nM; clearance [8]: 14 mL/min/kg; half-life [9]: 5.2 h; bioavailability [10]: 77%; Ki [11]: > 5010 nM; pKb [12]: 8.3; Ki [13]: 1260 nM |

More lines, in order of falling Ki (D(2) dopamine receptor), values ahead:

| Ki (D(2) dopamine receptor) [nM] | Ki (D(3) dopamine receptor) [nM] | Compound | also measured |
| --- | --- | --- | --- |
| 2510 | 25.1 | N#Cc1ccc2c(c1)CN(CC[C@H]1CC[C@H](NC(=O)c3cc4ccccc4[nH]3)CC1)C2 | – |
| 2510 | 63.1 | N#Cc1ccc2c(c1)CN(CC[C@H]1CC[C@H](NC(=O)c3ccnc4ccccc34)CC1)C2 | – |
| 1000 | 10 | COc1cccc(/C=C/C(=O)N[C@H]2CC[C@H](CCN3Cc4ccc(C#N)cc4C3)CC2)c1 | – |
| 200 | 7.94 | COc1ccc2c(c1)CN(CC[C@H]1CC[C@H](NC(=O)/C=C/c3ccc(F)cc3)CC1)C2 | – |
| 100 | 3.16 | O=C(/C=C/c1ccc(F)cc1)N[C@H]1CC[C@H](CCN2Cc3ccc(Br)cc3C2)CC1 | – |
